Consider eight compounds from PubChem BioAssay AID624129 (Sanford-Burnham Center for Chemical Genomics, 2012).

The source made the active and inactive calls. No rule for the calls is given here.

Test in all cases: CXCR6 receptor antagonists, dose response, cell-based, beta-arrestin, DiscoveRx, APJ panel, uHTS hits (AID 624129)
Assay [1] has as its target C-X-C chemokine receptor type 6 (Homo sapiens) (UniProt O00574). The note with it: CXCR6 beta-arrestin (DiscoveRx) antagonist cell assay; for inhibition: CXCR6, run 1, dose range 2, at 80 µM (top of the series).
Assay [2] has as its target Apelin receptor (Homo sapiens) (UniProt P35414). The note with it: CXCR6 beta-arrestin (DiscoveRx) antagonist cell assay, APJ.
Assay [3] has as its target Beta-galactosidase (Escherichia coli) (UniProt Q8VNN2). The note with it: CXCR6 beta-arrestin (DiscoveRx) antagonist cell assay, b-galactosidase.
Assay [4] has as its target C-C chemokine receptor type 6 (Homo sapiens) (UniProt P51684). The note with it: CXCR6 beta-arrestin (DiscoveRx) antagonist cell assay.
Where [5] appears, read: CXCR6, dose range 1, mean IC50 across replicates.
The mark [6] stands for this setting: dose range 1, mean IC50 across replicates.
The mark [7] stands for this setting: CCR6, dose range 1, mean IC50 across replicates.

Sequence of Beta-galactosidase (Escherichia coli) (Q8VNN2 whole entry, looked up): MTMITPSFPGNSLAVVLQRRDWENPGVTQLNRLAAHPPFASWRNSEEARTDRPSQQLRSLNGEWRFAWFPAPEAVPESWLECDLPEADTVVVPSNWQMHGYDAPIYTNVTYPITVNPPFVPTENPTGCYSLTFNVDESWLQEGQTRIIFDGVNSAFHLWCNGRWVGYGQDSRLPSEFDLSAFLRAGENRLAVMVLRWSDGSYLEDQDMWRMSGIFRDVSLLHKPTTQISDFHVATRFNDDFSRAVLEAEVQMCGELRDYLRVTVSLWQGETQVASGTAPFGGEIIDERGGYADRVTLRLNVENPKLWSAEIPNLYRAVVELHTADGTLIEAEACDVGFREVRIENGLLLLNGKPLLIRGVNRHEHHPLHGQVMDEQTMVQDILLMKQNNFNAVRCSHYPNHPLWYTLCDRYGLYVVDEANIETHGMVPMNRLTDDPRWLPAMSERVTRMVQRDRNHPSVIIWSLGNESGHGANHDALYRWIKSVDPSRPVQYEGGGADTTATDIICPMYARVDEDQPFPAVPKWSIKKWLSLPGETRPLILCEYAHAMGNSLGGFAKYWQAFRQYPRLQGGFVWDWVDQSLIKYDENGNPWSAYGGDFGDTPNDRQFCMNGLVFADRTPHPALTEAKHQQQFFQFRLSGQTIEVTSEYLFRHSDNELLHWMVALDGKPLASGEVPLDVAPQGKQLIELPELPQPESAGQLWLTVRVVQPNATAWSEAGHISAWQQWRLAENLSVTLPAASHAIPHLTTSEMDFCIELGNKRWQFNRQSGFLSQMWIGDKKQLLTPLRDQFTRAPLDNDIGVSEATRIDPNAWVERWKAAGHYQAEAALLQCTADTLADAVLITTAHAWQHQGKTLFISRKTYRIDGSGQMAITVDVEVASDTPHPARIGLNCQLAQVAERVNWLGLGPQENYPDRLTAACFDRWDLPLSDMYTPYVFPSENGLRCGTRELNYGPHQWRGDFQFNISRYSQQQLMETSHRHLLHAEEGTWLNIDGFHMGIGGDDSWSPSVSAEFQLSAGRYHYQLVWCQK
Sequence of C-X-C chemokine receptor type 6 (Homo sapiens) (O00574 whole entry, looked up): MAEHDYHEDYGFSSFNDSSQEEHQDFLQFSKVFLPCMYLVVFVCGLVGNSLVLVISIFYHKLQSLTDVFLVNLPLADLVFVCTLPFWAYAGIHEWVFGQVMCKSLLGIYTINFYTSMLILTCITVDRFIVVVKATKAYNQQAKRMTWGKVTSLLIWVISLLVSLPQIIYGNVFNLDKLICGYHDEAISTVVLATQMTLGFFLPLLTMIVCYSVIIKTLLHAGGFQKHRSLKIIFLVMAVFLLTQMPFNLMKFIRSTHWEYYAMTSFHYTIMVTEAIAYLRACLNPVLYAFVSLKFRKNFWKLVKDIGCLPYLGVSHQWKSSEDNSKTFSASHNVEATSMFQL

Consider `COc1ccc(-c2csc(Cc3nc(O)cs3)n2)cc1`, for which the IC50 in assay [1] (CXCR6, dose range 1) was 4.12 µM; in assay [1] (setting [5]), 4.09 µM; in assay [1] (CXCR6, run 1, dose range 2) it was 3.66 µM; in assay [1] (CXCR6, run 2, dose range 1) it was 4.68 µM; in assay [1] (CXCR6, run 2, dose range 2), 3.91 µM; in assay [2] (dose range 1), 4.5 µM. Moreover, the IC50 in assay [2] (setting [6]) is 4.96 µM; in assay [2] (run 2, dose range 1), 5.92 µM; in assay [2] (run 3, dose range 1), 4.47 µM; in assay [3] (dose range 1), > 80 µM (inactive); in assay [3] (setting [6]) it was > 80 µM; in assay [4] (CCR6, dose range 1), 2.8 µM. Also, the IC50 came to 3.45 µM in assay [4] (setting [7]) and 4.1 µM in assay [4] (CCR6, run 2, dose range 1).

For the compound `O=[N+]([O-])c1cc([N+](=O)[O-])c2cc3ccccc3nc2c1`, the IC50 is > 80 µM (inactive) in assay [1] (CXCR6, dose range 1); > 80 µM in assay [1] (setting [5]); > 80 µM in assay [1] (CXCR6, run 2, dose range 1); > 80 µM in assay [2] (setting [6]); > 80 µM in assay [2] (run 2, dose range 1); > 80 µM in assay [2] (run 3, dose range 1). Further, the IC50 in assay [3] (dose range 1) was > 80 µM (inactive); in assay [3] (setting [6]) it was > 80 µM; in assay [4] (setting [7]) it was > 80 µM; in assay [4] (CCR6, run 2, dose range 1), > 80 µM. The inhibition in assay [1] is -64.9%.

`Cc1ccc(C(=O)CNc2ccc(F)cc2)cc1`: the IC50 was 0.476 µM in assay [1] (CXCR6, dose range 1); 0.435 µM in assay [1] (setting [5]); 0.395 µM in assay [1] (CXCR6, run 2, dose range 1); 0.364 µM in assay [2] (dose range 1); 0.281 µM in assay [2] (setting [6]); 0.236 µM in assay [2] (run 2, dose range 1). For the same compound, the IC50 in assay [2] (run 3, dose range 1) was 0.242 µM; in assay [3] (dose range 1) it was > 80 µM (inactive); in assay [3] (setting [6]) it was > 80 µM; in assay [4] (CCR6, dose range 1), 0.29 µM; in assay [4] (setting [7]), 0.271 µM; in assay [4] (CCR6, run 2, dose range 1), 0.251 µM. The inhibition in assay [1] was determined as 113%.

For `Cc1ccc2c(Cl)cc(Cl)c(O)c2n1`, the IC50 was 4.4 µM in assay [1] (CXCR6, dose range 1); 3.59 µM in assay [1] (setting [5]); 3.41 µM in assay [1] (CXCR6, run 1, dose range 2); > 80 µM in assay [1] (CXCR6, run 2, dose range 1); 2.96 µM in assay [1] (CXCR6, run 2, dose range 2); 2.79 µM in assay [2] (dose range 1). Also, the half-maximal inhibitory concentration (IC50) in assay [2] (setting [6]) was 5.05 µM; in assay [2] (run 2, dose range 1), 5.23 µM; in assay [2] (run 3, dose range 1) it was 7.12 µM; in assay [3] (dose range 1) it was > 80 µM (inactive); in assay [3] (setting [6]) it was > 80 µM; in assay [4] (CCR6, dose range 1) it was 3.37 µM. The IC50 in assay [4] (setting [7]) came to 3.57 µM; in assay [4] (CCR6, run 2, dose range 1), 3.77 µM.

Turning to `O=C1C=CC(=O)N1c1ccc(-c2nc3ccccc3o2)cc1`, the IC50 is 4.9 µM in assay [1] (CXCR6, dose range 1); 4.9 µM in assay [1] (setting [5]); > 80 µM in assay [1] (CXCR6, run 2, dose range 1); 5.45 µM in assay [2] (dose range 1); 5.31 µM in assay [2] (setting [6]); 5.18 µM in assay [2] (run 2, dose range 1). In addition, the IC50 in assay [2] (run 3, dose range 1) was > 80 µM; in assay [3] (dose range 1) it was > 80 µM (inactive); in assay [3] (setting [6]), > 80 µM; in assay [4] (CCR6, dose range 1) it was 2.84 µM; in assay [4] (setting [7]) it was 3.1 µM; in assay [4] (CCR6, run 2, dose range 1) it was 3.36 µM. For the same compound, the inhibition in assay [1] was determined as 128%.

In the case of `CS(=O)(=O)c1ncc(Cl)c(C(=O)Nc2ccc3ccccc3c2)n1`, the IC50 in assay [1] (CXCR6, dose range 1) is > 80 µM (inactive); in assay [1] (setting [5]), > 80 µM; in assay [1] (CXCR6, run 2, dose range 1), > 80 µM; in assay [2] (dose range 1) it was 61.2 µM; in assay [2] (setting [6]), 60.7 µM; in assay [2] (run 2, dose range 1), 60.1 µM. Further, the IC50 in assay [2] (run 3, dose range 1) is > 80 µM; in assay [3] (dose range 1), > 80 µM (inactive); in assay [3] (setting [6]), > 80 µM; in assay [4] (setting [7]), 47.5 µM; in assay [4] (CCR6, run 2, dose range 1), 47.5 µM. For the same compound, in assay [1], the inhibition came out at 47.9%.

Turning to `O=C(Nc1nccs1)c1sc2cc(Cl)ccc2c1Cl`, in assay [1] (CXCR6, dose range 1), the IC50 entry was “inactive”. For the same compound, the IC50 in assay [1] (setting [5]) is 19 µM; in assay [1] (CXCR6, run 1, dose range 2), 7.2 µM; in assay [1] (CXCR6, run 2, dose range 1), 46.1 µM; in assay [1] (CXCR6, run 2, dose range 2) it was 10.3 µM; in assay [2] (dose range 1), 48.2 µM; in assay [2] (setting [6]) it was 46.8 µM. Further, the IC50 was 45.4 µM in assay [2] (run 2, dose range 1); > 80 µM in assay [2] (run 3, dose range 1); > 80 µM (inactive) in assay [3] (dose range 1); > 80 µM in assay [3] (setting [6]); 9.63 µM in assay [4] (CCR6, dose range 1); 10.1 µM in assay [4] (setting [7]). The IC50 in assay [4] (CCR6, run 2, dose range 1) is 10.6 µM.

For the compound `C/C(=N\NC(=O)C1COc2ccccc2O1)c1ccccn1` (stereo not given), the IC50 entry in assay [1] (CXCR6, dose range 1) is “inactive”. For the same compound, the IC50 in assay [1] (setting [5]) is 15.5 µM; in assay [1] (CXCR6, run 1, dose range 2), 3.86 µM; in assay [1] (CXCR6, run 2, dose range 1) it was 12.6 µM; in assay [1] (CXCR6, run 2, dose range 2), 3.74 µM; in assay [2] (dose range 1), 5.83 µM; in assay [2] (setting [6]), 5.59 µM. Moreover, the IC50 was 4.73 µM in assay [2] (run 2, dose range 1); 6.22 µM in assay [2] (run 3, dose range 1); > 80 µM (inactive) in assay [3] (dose range 1); > 80 µM in assay [3] (setting [6]); 3.22 µM in assay [4] (CCR6, dose range 1); 3.87 µM in assay [4] (setting [7]). Also, the IC50 in assay [4] (CCR6, run 2, dose range 1) came to 4.51 µM.
